Experimental data as given in US4374284A, “Antiulcer, antiinflammatory, and antiallergic agent comprising as the main ingredient olean-12-ene-3β, 30-diol which is devoid of side effects of glycyrrhetinic acid and a new process for preparation of olean-12-ene-3β, 30-diol” (Minophagen Pharmaceutical Company, priority 1980, dated 1983).

What was measured:
[1] = higher dosages for a long period, clinical; cited from earlier work
[2] = molecular target: T1, Δ^4 -5α-reductase for aldosterone in rat liver (Rattus norvegicus, UniProt P24008); assay: inhibitory action on Δ^4-5α-reductase for aldosterone; format: biochemical; settings: for inhibition at 0.173 µM: pH 7.2, read-out: 5α-reductase (inhibition %)
T1 construct: The pellet was appropriately diluted with a solution of 0.25 M sucrose-1 mM EDTA to use as a 5α-reductase solution; from tissue; host or cells: rat liver, 105,000 g pellet
T1 sequence (P24008 1-259): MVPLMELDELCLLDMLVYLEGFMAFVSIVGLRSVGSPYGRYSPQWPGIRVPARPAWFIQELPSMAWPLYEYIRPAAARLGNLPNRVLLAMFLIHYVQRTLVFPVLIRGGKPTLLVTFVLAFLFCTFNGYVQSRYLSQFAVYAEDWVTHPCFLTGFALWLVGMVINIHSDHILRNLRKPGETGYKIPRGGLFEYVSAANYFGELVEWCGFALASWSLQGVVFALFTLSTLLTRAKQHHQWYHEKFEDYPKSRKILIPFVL
Method: (§1) In vitro experimental results regarding effects of glycyrrhetinic acid (II) and its modified compounds (III), (IV), and (I) on Δ^4 -5α and 5β-reductase for aldosterone in rat liver will be shown below.
(§2) Assay for activity of Δ^4 -5α and 5β-reductase
(§3) (1) Preparation of enzyme solutions
(§4) Rat livers were perfused with saline and excised to prepare a 25% or 50% homogenate with a solution of 0.25 M sucrose and 1 mM EDTA. The homogenate was spun at 10,000 g for 20 minutes to separate supernatant, which was centrifuged again at 105,000 g to obtain Δ^4 -5β-reductase as the supernatant. The pellet was appropriately diluted with a solution of 0.25 M sucrose-1 mM EDTA to use as a 5α-reductase solution.
(§5) (2) Conditions for incubation and assay
(§6) 1 Aldosterone . . . 0.173 μM/0.05 ml ethanol solution
(§7) 2 Glycyrrhetinic acid or its modified compounds . . . 0.173 μM/0.05 ml ethanol solution Control . . . 0.05 ml ethanol solution
(§8) 5α-reductase solution 0.1 ml
(§9) 5β-reductase solution 0.1 ml or 0.2 ml
(§10) 5 Phosphate buffer (0.1 M, pH 7.2) 1 ml
(§11) The components 1 , 2 , 3 , 4 , 5 , and 6 mentioned above were mixed to bring the total volume up to 2.5 ml. The mixture was incubated at 37° C. for 20 minutes. Before the incubation, however, 1 ml aliquot was removed from 2.5 ml of the mixture mentioned above and extracted with 5 ml of methylene dichloride. After the incubation, the remaining 1.5 ml was extracted with 5 ml of methylene dichloride. The optical density of the two methylene dichloride solutions prepared before and after the incubation was measured by a spectrophotometer (Hitachi) at 240 mμ. Inhibition % of Δ^4 -5α and 5β-reductase activity was calculated from the difference in the optical density.

stress-induced ulcer = assay: mice experiments on stress-induced ulcer (restraint plus water immersion); format: in vivo, male ddY mice; settings: for inhibitory effect on stress-induced ulcer (in words): 200 mg/kg
Method: (a) Mice Experiments on stress-induced ulcer Experimental procedures:
Male ddY mice weighing about 20 g were made to fast for 18 hours. Water was given freely. Compounds to be tested were suspended in Tween 80 to prepare an aqueous suspension and administered orally. Immediately thereafter, the mice were subjected to restraint plus water immersion stress (25° C.) for 6 hours. Thereafter, the stomach was excised and fixed by formalin. The degree of ulcer was shown as a total of the length. The control group was given only the solvent.

[3] = molecular target: T2, Δ^4 -5β-reductase for aldosterone in rat liver (Rattus norvegicus, UniProt P31210); assay: inhibitory action on Δ^4-5β-reductase for aldosterone; format: biochemical
T2 construct: centrifuged again at 105,000 g to obtain Δ^4 -5β-reductase as the supernatant; from tissue; host or cells: rat liver, 105,000 g supernatant (cytosol)
T2 sequence (P31210 1-326): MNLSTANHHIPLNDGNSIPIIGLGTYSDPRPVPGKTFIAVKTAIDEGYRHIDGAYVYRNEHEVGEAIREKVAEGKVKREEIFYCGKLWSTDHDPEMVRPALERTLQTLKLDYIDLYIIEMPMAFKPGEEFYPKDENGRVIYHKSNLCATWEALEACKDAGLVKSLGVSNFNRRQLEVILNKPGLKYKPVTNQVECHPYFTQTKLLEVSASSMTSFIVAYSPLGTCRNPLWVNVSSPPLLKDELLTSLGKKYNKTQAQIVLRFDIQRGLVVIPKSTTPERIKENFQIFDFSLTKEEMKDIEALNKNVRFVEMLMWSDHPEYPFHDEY
Method: as §1, §2, §3, §4, §5, §6, §7, §8, §9, §10, §11

aspirin-induced ulcer [4] = assay: rat experiment on aspirin-induced ulcer, pylorus ligated (experiment a); format: in vivo, male Wister rats; settings: rat, in vivo
Method: (b) Rat experiment on aspirin-induced ulcer
(a) Experimental procedures:
Male Wister rats weighing about 220 g were made to fast for 24 hours. Water was given freely. The rats were laparotomized under anesthesia with ether. The stomach was drawn out and ligated at the pylorus. Immediately thereafter, 1% CMC suspension of aspirin was administered orally in a dose of 100 mg/kg/5 ml. Aqueous suspensions of compounds to be tested were prepared in the same manner as in the experiment (a) and administered intraduodenally at the same time. The wound was closed and the rats were set free. After 7 hours, the stomach was excised and ulcer was measured in the same manner as in the experiment (a).

[5] = system: ulcers induced by acetic acid; assay: experiments with rats on ulcers induced by acetic acid (chronic gastric ulcers); format: in vivo; parameters: ulcer value (major axis × minor axis): unit not given here; settings: for ulcer value (major axis × minor axis): p.o., 14 days
Method: (c) Experiments with rats on ulcers induced by acetic acid
Chronic gastric ulcers were induced by penetrating 100% acetic acid serosally into gastric wall for 60 sec. using a small cup (6 mm in diameter, 5 mm in height).
From the next day, compounds to be tested were administered orally twice a day (morning and evening) for 14 days. Autopsies were carried out 15 days after the administrations.

[6] = system: writhing induced by acetic acid; assay: effect on writhing induced by acetic acid (analgesic action); format: in vivo, male ddY mice; settings: for number of writhing: 200 mg/kg p.o., counted for 10 minutes, control 24.9 ± 1.6, ** p < 0.01
Method: (b) Effect on writhing induced by acetic acid (analgesic action)
The present compound olean-12-ene-3β, 30-diol (I) was administered orally to male ddY mice weighing 25-27 g. After 30 minutes, saline containing 0.7% acetic acid was administered intraperitoneally. The number of writhings of the mice was counted for 10 minutes from, 10 min. of the administration. Aspirin was used as the reference.

[7] = system: PCA reaction (type I allergy); assay: PCA test (type I allergy); format: in vivo, male Wister rats; settings: serum 1/64, 200 mg/kg intraperitoneally; control 16.4 ± 2.8
Method: (a) PCA--Test (type I allergy)
Male Wister rats weighing […] were shaved at the abdomen. After 24 hours, 0.05 ml of serum diluted with saline (Blood samples were diluted to 1/32 and 1/64; The blood samples were collected from rats 3 weeks after administration of pertussis vaccine and egg albumin.) was injected intradermally at the abdomen. After 48 hours, compounds to be tested were administered intraperitoneally. Two hours thereafter, 0.5 ml./100 g of a solution of antigen and pigment (a solution of 0.4% egg albumin and 0.5% Pontamine sky blue) was administered. After 45 minutes, the rats were decapitated and bled, and the diameter of the pigment-leaking site under the skin was measured to obtain the area.

aspirin-induced ulcer [8] = assay: rat experiment on aspirin-induced ulcer, oral (experiment b); format: in vivo, male Wister rats; settings: 200 mg/kg p.o., after 5 hours; control 0
Method: (b) Experimental procedures:
Male Wister rats weighing 120-140 g were made to fast for 24 hours, and compounds to be tested were administered orally. After 5 hours, the rats were killed by a blow. The stomach was excised and observed for the presence of ulcer.
The size of ulcer was measured by ulcer index (ulcer length×width mm^2).

[9] = system: rat paw edema induced with carrageenin; assay: test on rat paw edema induced with carrageenin (antiinflammatory); format: in vivo, male Wister rats; settings: 200 mg/kg p.o., after three hours
Method: (a) Test on rat paw induced with carrageenin
To the plantar side of the hind paw of male Wister rats was administered subcutaneously 0.05 ml/rat of 10% saline solution of carrageenin. Edema after three hours was measured by the volume method and the rate of inhibition was assayed. Compounds were administered orally 30 minutes before administration of carrageenin. [formula]

[10] = summary in words, liver reductase

CC1(C)[C@@H](O[C@H]2O[C@H](C(=O)O)[C@@H](O)[C@H](O)[C@H]2O[C@@H]2O[C@H](C(=O)O)[C@@H](O)[C@H](O)[C@H]2O)CC[C@]2(C)[C@H]3C(=O)C=C4[C@@H]5C[C@@](C)(C(=O)O)CC[C@]5(C)CC[C@@]4(C)[C@]3(C)CC[C@@H]12 [Glycyrrhizin]
side effect (in words) [1]: pseudoaldosteronism such as hypertension, hypopotassemia, and edema

CC1(C)[C@@H](O)CC[C@]2(C)[C@H]3C(=O)C=C4[C@@H]5C[C@@](C)(CO)CC[C@]5(C)CC[C@@]4(C)[C@]3(C)CC[C@@H]12 [IV, olean12-ene-11-oxo-3β, 30diol]
inhibition at 0.173 µM [2]: 26.5 ± 5.6%

CC1(C)[C@@H](O)CC[C@]2(C)[C@H]3CC=C4[C@@H]5C[C@@](C)(C(=O)O)CC[C@]5(C)CC[C@@]4(C)[C@]3(C)CC[C@@H]12 [III, olean-12-ene-3β-ol-30-oic acid]
inhibition at 0.173 µM [2]: -0.5 ± 6.6%
inhibitory effect on stress-induced ulcer (in words) (stress-induced ulcer): showed the effect
ulcer index (stress-induced ulcer; 200 mg/kg p.o., 5th experiment, control 4.13 ± 0.53): 3.38 ± 0.79

CC1(C)[C@@H](O)CC[C@]2(C)[C@H]3C(=O)C=C4[C@@H]5C[C@@](C)(C(=O)O)CC[C@]5(C)CC[C@@]4(C)[C@]3(C)CC[C@@H]12 [II, olean-12-ene-11-oxo-3β-ol-30-oic acid, reference compound]
effect upon Δ^4 -5α-5β-reductase (in words), 5α [2, 10]: strongly inhibited the activity of the reductase
inhibition at 0.173 µM (stock) ([3]; equimolar to aldosterone (0.173 μM), 37° C., 20 minutes, pH 7.2): 87.7 ± 2.2%
effect upon Δ^4 -5α-5β-reductase (in words), 5β [3, 10]: strongly inhibited the activity of the reductase
inhibitory effect on stress-induced ulcer (in words) (stress-induced ulcer): showed the inhibitory effect
inhibitory effect on aspirin-induced ulcer, experiment (a) (in words) (aspirin-induced ulcer [4]): scarcely showed the effect
ulcer value (major axis × minor axis) ([5]; Experiment 1, 200 mg/kg (half dose twice/day), control 12.0 ± 2.3): 10.4 ± 2.7
ulcer value (major axis × minor axis) ([5]; Experiment 1, 400 mg/kg (half dose twice/day), control 12.0 ± 2.3): 8.6 ± 2.2
ulcer value (major axis × minor axis) ([5]; Experiment 2, 200 mg/kg (half dose twice/day), control 8.9 ± 1.7): 11.5 ± 2.2
ulcer value (major axis × minor axis) ([5]; Experiment 2, 400 mg/kg (half dose twice/day), control 8.9 ± 1.7): 5.8 ± 1.0
ulcer value (major axis × minor axis) ([5]; Total, 200 mg/kg (half dose twice/day), control 10.4 ± 1.4): 10.9 ± 1.7
ulcer value (major axis × minor axis) ([5]; Total, 400 mg/kg (half dose twice/day), control 10.4 ± 1.4, * p < 0.05): 7.1 ± 1.2
inhibitory effect on acetic acid ulcer (in words) ([5]; dose of 400 mg): clearly showed inhibitory effects
number of writhing [6]: 15.2 ± 3.6
effect on writhing (in words) ([6]; increasing doses): significantly decrease the number of writhing
area [7]: 7.7 ± 6.5 mm^2

CC(=O)Oc1ccccc1C(=O)O [aspirin, reference compound]
ulcer index (ulcer length×width) (aspirin-induced ulcer [8]): 7.11 ± 1.1 mm^2
edema % ([9]; control 71 ± 6): 17 ± 3%
inhibition at 200 mg/kg ([9]; Rattus norvegicus, po, 3 h, edema): 76.1%
number of writhing [6]: 0
